# Measurements taken from article PMC6704710, “Preclinical evaluation of 3D185, a novel potent inhibitor of FGFR1/2/3 and CSF-1R, in FGFR-dependent and macrophage-dominant cancer models” (Journal of Experimental & Clinical Cancer Research : CR, 2019).
# Columns and labels:
# Assay in all cases: Eurofins kinase panel
# Type in all cases: biochemical
# [1] = molecular target: T1, PKCε(h) (Homo sapiens, UniProt Q02156); details: read-out: Inhibition rate (%)
# T1 construct: purchased Eurofins (KinaseProfiler)
# T1 sequence (Q02156 1-737): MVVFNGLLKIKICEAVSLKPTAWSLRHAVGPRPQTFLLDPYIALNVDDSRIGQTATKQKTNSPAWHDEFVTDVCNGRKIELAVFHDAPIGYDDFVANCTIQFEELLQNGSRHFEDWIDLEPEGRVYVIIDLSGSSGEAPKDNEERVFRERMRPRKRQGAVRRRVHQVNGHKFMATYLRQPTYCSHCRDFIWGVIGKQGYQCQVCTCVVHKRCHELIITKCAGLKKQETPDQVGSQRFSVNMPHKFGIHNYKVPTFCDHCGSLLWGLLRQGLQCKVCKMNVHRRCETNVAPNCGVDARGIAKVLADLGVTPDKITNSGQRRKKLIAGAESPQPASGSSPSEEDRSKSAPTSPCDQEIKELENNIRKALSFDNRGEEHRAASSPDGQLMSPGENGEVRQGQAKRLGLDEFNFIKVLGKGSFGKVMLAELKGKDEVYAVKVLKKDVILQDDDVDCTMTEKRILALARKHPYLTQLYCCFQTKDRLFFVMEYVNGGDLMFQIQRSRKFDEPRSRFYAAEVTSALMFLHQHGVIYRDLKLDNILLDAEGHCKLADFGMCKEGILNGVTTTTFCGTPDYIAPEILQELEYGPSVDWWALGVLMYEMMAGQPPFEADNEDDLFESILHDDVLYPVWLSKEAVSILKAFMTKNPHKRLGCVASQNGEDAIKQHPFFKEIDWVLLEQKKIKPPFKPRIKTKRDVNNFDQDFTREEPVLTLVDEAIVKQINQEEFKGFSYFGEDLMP
# [2] = molecular target: T2, PI3 Kinase (p110α(E545K)/p85α)(h) (Homo sapiens, UniProt P42336, E545K); details: read-out: Inhibition rate (%)
# T2 construct: purchased Eurofins (KinaseProfiler)
# [3] = molecular target: T3, CaMKK2(h) (Homo sapiens, UniProt Q96RR4); details: read-out: Inhibition rate (%)
# T3 construct: purchased Eurofins (KinaseProfiler)
# T3 sequence (Q96RR4 whole entry): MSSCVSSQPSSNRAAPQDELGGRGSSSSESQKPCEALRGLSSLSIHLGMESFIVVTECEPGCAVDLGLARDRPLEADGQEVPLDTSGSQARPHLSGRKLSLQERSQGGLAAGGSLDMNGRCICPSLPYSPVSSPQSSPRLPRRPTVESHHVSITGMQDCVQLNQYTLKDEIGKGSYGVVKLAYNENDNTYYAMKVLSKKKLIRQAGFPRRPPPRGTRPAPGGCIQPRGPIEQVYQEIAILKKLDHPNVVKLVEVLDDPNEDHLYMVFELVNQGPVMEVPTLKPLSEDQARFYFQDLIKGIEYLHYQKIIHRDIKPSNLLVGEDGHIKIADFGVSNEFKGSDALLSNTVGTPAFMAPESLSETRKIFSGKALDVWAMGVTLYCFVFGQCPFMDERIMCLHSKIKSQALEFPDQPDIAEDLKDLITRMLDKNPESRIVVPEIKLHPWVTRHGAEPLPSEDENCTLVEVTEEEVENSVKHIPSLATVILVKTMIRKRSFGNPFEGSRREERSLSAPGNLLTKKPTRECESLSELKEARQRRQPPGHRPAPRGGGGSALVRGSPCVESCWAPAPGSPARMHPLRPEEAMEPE
# [4] = molecular target: T4, IGF-1R(h), activated (Homo sapiens, UniProt P08069); details: read-out: Inhibition rate (%)
# T4 construct: purchased Eurofins (KinaseProfiler)
# [5] = molecular target: T5, PDGFRα(V561D)(h) (Homo sapiens, UniProt P16234, V561D); details: read-out: Inhibition rate (%)
# T5 construct: purchased Eurofins (KinaseProfiler)
# T5 sequence (P16234 24-1089 V561D): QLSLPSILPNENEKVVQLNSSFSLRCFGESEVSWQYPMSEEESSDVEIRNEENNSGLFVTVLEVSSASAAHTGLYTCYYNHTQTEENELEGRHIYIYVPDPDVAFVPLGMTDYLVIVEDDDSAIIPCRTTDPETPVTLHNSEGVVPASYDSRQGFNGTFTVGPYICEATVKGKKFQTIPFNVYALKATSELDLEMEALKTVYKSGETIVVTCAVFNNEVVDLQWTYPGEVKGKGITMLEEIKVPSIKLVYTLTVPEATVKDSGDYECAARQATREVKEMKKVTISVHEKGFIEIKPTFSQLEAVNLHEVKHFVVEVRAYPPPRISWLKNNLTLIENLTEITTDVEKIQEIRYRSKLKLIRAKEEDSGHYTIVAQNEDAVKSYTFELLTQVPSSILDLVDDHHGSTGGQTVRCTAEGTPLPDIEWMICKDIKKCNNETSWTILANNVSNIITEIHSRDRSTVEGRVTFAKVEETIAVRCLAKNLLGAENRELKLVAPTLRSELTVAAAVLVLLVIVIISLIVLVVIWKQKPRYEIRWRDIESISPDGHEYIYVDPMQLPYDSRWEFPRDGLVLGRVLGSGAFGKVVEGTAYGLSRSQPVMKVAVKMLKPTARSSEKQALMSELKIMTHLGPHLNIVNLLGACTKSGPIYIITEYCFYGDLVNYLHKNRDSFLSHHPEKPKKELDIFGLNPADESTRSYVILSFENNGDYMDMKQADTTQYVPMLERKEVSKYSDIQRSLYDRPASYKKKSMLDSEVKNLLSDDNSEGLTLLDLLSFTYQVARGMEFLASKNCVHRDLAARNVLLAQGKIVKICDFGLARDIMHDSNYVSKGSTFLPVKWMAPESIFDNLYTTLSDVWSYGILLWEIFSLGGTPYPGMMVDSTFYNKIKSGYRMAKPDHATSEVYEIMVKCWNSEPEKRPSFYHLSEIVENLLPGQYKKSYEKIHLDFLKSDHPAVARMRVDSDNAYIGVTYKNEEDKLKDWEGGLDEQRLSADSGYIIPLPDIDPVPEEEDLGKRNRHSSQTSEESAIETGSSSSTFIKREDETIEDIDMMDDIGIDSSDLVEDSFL
# [6] = test system: CK1(y)
# [7] = molecular target: T6, CK1δ(h) (Homo sapiens, UniProt P48730); details: read-out: Inhibition rate (%)
# T6 construct: purchased Eurofins (KinaseProfiler)
# T6 sequence (P48730 whole entry): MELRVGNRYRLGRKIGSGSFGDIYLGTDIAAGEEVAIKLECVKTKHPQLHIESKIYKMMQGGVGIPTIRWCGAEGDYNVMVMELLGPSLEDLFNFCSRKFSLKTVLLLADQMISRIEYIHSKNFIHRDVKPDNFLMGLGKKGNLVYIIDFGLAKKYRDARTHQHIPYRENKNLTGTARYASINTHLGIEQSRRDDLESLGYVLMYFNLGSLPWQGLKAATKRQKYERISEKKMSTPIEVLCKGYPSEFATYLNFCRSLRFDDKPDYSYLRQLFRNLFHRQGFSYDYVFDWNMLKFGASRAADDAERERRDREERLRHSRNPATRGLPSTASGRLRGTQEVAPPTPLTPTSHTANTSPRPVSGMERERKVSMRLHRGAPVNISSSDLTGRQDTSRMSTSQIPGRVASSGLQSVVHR
# [8] = molecular target: T7, SAPK3(h) (Homo sapiens, UniProt P53778); details: read-out: Inhibition rate (%)
# T7 construct: purchased Eurofins (KinaseProfiler)
# T7 sequence (P53778 1-367): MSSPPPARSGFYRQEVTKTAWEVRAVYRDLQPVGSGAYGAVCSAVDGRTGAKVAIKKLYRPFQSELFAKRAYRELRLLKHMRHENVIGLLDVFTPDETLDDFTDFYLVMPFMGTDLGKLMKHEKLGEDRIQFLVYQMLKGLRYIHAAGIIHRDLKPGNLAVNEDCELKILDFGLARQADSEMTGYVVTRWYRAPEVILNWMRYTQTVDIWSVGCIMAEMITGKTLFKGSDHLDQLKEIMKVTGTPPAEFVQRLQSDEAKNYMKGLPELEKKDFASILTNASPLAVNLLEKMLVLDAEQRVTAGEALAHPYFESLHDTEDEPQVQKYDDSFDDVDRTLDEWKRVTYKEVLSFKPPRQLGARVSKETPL
# [9] = molecular target: T8, CaMKIß(h) (Homo sapiens, UniProt Q6P2M8); details: read-out: Inhibition rate (%)
# T8 construct: purchased Eurofins (KinaseProfiler)
# T8 sequence (Q6P2M8 whole entry): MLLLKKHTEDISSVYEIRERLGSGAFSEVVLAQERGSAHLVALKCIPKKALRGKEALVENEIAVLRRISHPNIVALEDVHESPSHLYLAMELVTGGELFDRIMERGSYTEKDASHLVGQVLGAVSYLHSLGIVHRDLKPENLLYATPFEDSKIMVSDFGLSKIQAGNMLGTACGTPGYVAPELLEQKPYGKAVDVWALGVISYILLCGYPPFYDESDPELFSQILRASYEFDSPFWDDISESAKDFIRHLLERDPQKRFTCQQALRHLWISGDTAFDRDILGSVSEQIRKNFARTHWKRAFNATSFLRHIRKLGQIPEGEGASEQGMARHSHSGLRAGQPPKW
# [10] = molecular target: T9, TTBK2(h) (Homo sapiens, UniProt Q6IQ55); details: read-out: Inhibition rate (%)
# T9 construct: purchased Eurofins (KinaseProfiler)
# T9 sequence (Q6IQ55 whole entry): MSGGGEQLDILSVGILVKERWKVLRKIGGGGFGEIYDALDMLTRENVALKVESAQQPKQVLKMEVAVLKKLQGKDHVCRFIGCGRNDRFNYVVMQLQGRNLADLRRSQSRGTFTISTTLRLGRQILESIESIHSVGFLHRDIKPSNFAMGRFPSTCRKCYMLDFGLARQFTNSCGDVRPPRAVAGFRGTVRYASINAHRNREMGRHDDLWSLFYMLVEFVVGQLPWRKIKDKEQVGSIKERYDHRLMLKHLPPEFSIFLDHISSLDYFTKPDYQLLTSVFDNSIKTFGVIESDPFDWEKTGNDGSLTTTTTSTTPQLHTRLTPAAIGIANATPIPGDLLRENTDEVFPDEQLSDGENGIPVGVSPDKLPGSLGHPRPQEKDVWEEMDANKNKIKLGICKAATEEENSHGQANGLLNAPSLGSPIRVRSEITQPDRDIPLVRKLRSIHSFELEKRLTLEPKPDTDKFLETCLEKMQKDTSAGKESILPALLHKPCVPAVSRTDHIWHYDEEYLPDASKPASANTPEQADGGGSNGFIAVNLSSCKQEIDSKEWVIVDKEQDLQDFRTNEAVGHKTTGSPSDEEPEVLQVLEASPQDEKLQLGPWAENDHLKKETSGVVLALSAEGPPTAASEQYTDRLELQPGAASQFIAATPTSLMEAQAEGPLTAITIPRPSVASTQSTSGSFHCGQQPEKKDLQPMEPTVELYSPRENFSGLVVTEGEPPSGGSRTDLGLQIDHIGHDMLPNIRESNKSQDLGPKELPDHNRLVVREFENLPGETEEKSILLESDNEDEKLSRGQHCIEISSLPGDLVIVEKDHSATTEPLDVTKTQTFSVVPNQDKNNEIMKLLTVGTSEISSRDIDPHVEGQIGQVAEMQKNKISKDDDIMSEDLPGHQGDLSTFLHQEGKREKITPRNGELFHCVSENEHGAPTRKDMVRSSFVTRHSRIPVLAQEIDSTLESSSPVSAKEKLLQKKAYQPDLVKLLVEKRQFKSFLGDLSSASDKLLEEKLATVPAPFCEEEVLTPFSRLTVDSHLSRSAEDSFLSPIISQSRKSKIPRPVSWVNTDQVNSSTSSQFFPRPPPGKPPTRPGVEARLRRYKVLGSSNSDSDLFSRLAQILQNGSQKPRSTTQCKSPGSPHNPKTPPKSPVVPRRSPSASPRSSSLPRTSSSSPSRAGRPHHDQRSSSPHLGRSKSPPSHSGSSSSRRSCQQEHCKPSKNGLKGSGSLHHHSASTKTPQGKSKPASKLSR
# [11] = molecular target: T10, Fgr(h) (Homo sapiens, UniProt P09769); details: read-out: Inhibition rate (%)
# T10 construct: purchased Eurofins (KinaseProfiler)
# T10 sequence (P09769 whole entry): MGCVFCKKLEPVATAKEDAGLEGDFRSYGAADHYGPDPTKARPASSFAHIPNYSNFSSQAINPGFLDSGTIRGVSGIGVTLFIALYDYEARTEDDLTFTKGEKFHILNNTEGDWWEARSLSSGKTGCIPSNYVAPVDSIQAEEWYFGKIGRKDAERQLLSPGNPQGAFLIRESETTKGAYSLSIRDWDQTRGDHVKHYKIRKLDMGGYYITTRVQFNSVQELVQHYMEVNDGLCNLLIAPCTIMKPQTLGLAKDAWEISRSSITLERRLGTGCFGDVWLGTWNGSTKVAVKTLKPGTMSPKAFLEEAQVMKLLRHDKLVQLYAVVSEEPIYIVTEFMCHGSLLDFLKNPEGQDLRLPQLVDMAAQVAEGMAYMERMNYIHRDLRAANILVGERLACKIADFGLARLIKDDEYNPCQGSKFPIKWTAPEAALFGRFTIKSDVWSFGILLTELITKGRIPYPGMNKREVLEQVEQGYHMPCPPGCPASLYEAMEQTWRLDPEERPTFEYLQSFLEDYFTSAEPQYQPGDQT
# [12] = molecular target: T11, CK1γ2(h) (Homo sapiens, UniProt P78368); details: read-out: Inhibition rate (%)
# T11 construct: purchased Eurofins (KinaseProfiler)
# T11 sequence (P78368 whole entry): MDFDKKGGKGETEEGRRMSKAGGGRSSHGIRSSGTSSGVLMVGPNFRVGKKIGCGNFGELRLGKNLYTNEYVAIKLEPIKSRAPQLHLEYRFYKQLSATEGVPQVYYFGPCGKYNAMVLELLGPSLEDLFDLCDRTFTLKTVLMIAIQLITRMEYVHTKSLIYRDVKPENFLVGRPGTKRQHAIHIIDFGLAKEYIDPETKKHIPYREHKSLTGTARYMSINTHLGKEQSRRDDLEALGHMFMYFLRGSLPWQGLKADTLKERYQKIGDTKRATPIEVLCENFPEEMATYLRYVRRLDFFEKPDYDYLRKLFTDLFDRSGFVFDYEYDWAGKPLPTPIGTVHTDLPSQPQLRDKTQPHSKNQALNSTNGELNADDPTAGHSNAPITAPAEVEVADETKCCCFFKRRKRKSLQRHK
# [13] = molecular target: T12, TYK2(h) (Homo sapiens, UniProt P29597); details: read-out: Inhibition rate (%)
# T12 construct: purchased Eurofins (KinaseProfiler)
smiles,measurement,setting,value
COc1cc(OC)c(Cl)c(-c2ccc3c(NC(=O)c4ccc(N5CCNC(C)(C)C5)cc4)n[nH]c3n2)c1Cl [3D185],inhibition at 0.01 µM,[1]; 10 nM,-4%
same,inhibition at 0.1 µM,[1]; 100 nM,-10%
same,inhibition at 1 µM,[1]; 1000 nM,-6%
same,inhibition at 0.01 µM,[2]; 10 nM,-2%
same,inhibition at 0.1 µM,[2]; 100 nM,-2%
same,inhibition at 1 µM,[2]; 1000 nM,2%
same,inhibition at 0.01 µM,[3]; 10 nM,-4%
same,inhibition at 0.1 µM,[3]; 100 nM,-22%
same,inhibition at 1 µM,[3]; 1000 nM,4%
same,inhibition at 0.01 µM,[4]; 10 nM,-12%
same,inhibition at 0.1 µM,[4]; 100 nM,6%
same,inhibition at 1 µM,[4]; 1000 nM,49%
same,inhibition at 0.01 µM,[5]; 10 nM,5%
same,inhibition at 0.1 µM,[5]; 100 nM,23%
same,inhibition at 1 µM,[5]; 1000 nM,57%
same,Inhibition rate (%),[6]; 10 nM,-1%
same,Inhibition rate (%),[6]; 100 nM,0%
same,Inhibition rate (%),[6]; 1000 nM,2%
same,inhibition at 0.01 µM,[7]; 10 nM,-10%
same,inhibition at 0.1 µM,[7]; 100 nM,0%
same,inhibition at 1 µM,[7]; 1000 nM,6%
same,inhibition at 0.01 µM,[8]; 10 nM,-4%
same,inhibition at 0.1 µM,[8]; 100 nM,-12%
same,inhibition at 1 µM,[8]; 1000 nM,-7%
same,inhibition at 0.01 µM,[9]; 10 nM,-2%
same,inhibition at 0.1 µM,[9]; 100 nM,6%
same,inhibition at 1 µM,[9]; 1000 nM,32%
same,inhibition at 0.01 µM,[10]; 10 nM,-4%
same,inhibition at 0.1 µM,[10]; 100 nM,-11%
same,inhibition at 1 µM,[10]; 1000 nM,-9%
same,inhibition at 0.01 µM,[11]; 10 nM,11%
same,inhibition at 0.1 µM,[11]; 100 nM,44%
same,inhibition at 1 µM,[11]; 1000 nM,89%
same,inhibition at 0.01 µM,[12]; 10 nM,-9%
same,inhibition at 0.1 µM,[12]; 100 nM,-8%
same,inhibition at 1 µM,[12]; 1000 nM,-7%
same,inhibition at 0.01 µM,[13]; 10 nM,1%
same,inhibition at 0.1 µM,[13]; 100 nM,14%
same,inhibition at 1 µM,[13]; 1000 nM,67%
